Data from patent US7429580B2, “Compositions of an anticonvulsant and an antipsychotic drug and methods of using the same for affecting weight loss” (Orexigen Therapeutics, Inc., priority 2004, dated 2008).
“Also recorded” adds a separate entry of the source. Read-outs that look alike come from different tables or passages of the source.

Legend:
[1] = Case study Example 13: zonisamide, paroxetine and risperidone; type: in vivo, human
Experimental: They were therefore started on zonisamide 100 mg, incraesed to 200 mg. […] The dose was then increased to 300 mg and then to 600 mg.

mice = experiment: Food intake in mice (acute, after fast / intra-peritoneal injection); type: in vivo; conditions: for food intake: other preclinical experiments, each compound alone
[2] = Case study Example 14: zonisamide, olanzapine, valproate and bupropion; type: in vivo, human; conditions: for effect on weight gain resulting from olanzapine and valproate: summary of the case
Experimental: At this point, zonisamide was added to their medication regimen at 100 mg/day and the dose was increased to 200 mg/day after two weeks.

POMC neurons = experiment: Electrophysiological activity of POMC neurons in brain slices from POMC-EGFP mice; type: cell-based
Experimental: (§1) The electrophysiological activity of Proopiomelanocortin (POMC) neurons in brain slices from POMC-EGFP mice are recorded. The POMC neurons in these mice are identified by the expression of green fluorescent protein (EGFP) in these, and only these, cells. The frequency of action potentials in these neurons are recorded using standard electrophysiological techniques. In particular loose cell attached patch configuration is used to determine action potential frequency, whilst minimally disturbing the cells.
as §1, with “particular,” for “particular”

[3] = Rat-weight gain assay: rodent model of mirtazapine-induced weight gain; type: in vivo, rats; conditions: addition to concomitant mirtazapine treatment; doses tbd
Experimental: We have developed a model to pre-clinically test the effects of mirtazapine on body weight gain. […] Initially, a dose of 30 mg/kg of zonisamide (bid) is used, but the dose in the experiment ranges from 20 mg/kg to 90 mg/kg (bid). […] Mirtazapine or setiptiline are used as solutions in minipumps. The concentration of the solution ranges between 0.1 μM to 10 mM. In some experiments, the concentration is calculated to provide a dose of about 1 mg/kg/day. In certain experiments, the concentration is 10 μM.
In a 4×3 design rats receive implants that secrete mirtazapine, or setiptiline, or vehicle. Some rats also receive co-treatment with saline, some receive zonisamide, some receive bupropion, and others receive co-treatment with zonisamide plus bupropion. In this way cohorts of 10 rats receive all possible combinations of the weight loss drug(s) with mirtazapine or setiptiline.
Female Sprague-Dawley rats weighing about 300 grams at the start of the experiment are used. Under isoflurane anesthesia, Alzet osmotic minipumps (2 ml2) are implanted subcutaneously between the shoulder blades. The rats are returned to their home cages after recovery. The minipumps deliver 5 μL per hour for 14 days. A range of doses of mirtazapine (from 0.1 to 20 mg/kg/day dissolved in DMSO/saline) are used. […] Food consumed and animal weights are recorded every 3 days, to minimize disruption of the animals.

[4] = cited from earlier work
[5] = Rodent model of olanzapine-induced weight gain; type: in vivo, rats; conditions: addition to concomitant olanzapine treatment (about 1.75 mg/kg/day); doses tbd
Experimental: Rats receive implants that secrete olanzapine (or vehicle in control groups). Some also receive co-treatment with zonisamide; others get co-treatment with zonisamide plus bupropion. Initially, a dose of 30 mg/kg of zonisamide (bid) is used, but the dose in the experiment ranges from 20 mg/kg to 90 mg/kg (bid). […] Olanzapine is used as a solution in minipumps. The concentration of the solution ranges between 0.1 μM to 10 mM. In some experiments, the concentration is calculated to provide a dose of about 1.75 mg/kg/day. In certain experiments, the concentration is 10 μM.
Female Sprague-Dawley rats weighing about 300 grams at the start of the experiment are used. Under isoflurane anesthesia, Alzet osmotic minipumps (2 ml2) are implanted subcutaneously, between the shoulder blades. The rats are returned to their home cages after recovery. The minipumps deliver 5 μL per hour for 14 days. Olanzapine is dissolved in dH2O+10% dilute lactic acid. A pH of about 3.5 enables the olanzapine to dissolve completely and produce a golden solution. This pH level has no effect on the animals in either the drug groups or the vehicle group. The animals are housed individually and are supplied with standard laboratory chow. Food consumed and animal weights are recorded every 3 days, to minimize disruption of the animals.

[6] = Case study Example 12: zonisamide added to clonazepam, fluoxetine and lamotrogine; type: in vivo, human; conditions: person, bipolar disorder; zonisamide 100 mg qD added to clonazepam, fluoxetine, lamotrogine
Experimental: A person having biopolar disorder, Type I, had been treated for just over year by their psychiatrist using clonazepam 1 mg qHS, fluoxetine 20 mg qd, and lamotrogine 300 mg qD. One particular complaint was that they had “constant thoughts of eating”. Their psychiatrist started them on zonisamide 100 mg qD. […] The dose was continued and despite multiple stressors at home, they continued to do well on the treatment regimen.

[7] = system: serotonin and dopamine synthesis; conditions: cited from earlier work
dopamine D2 receptors = dopamine D2 receptors (Homo sapiens, UniProt P14416); conditions: cited from earlier work
Chain of dopamine D2 receptors (P14416 whole entry): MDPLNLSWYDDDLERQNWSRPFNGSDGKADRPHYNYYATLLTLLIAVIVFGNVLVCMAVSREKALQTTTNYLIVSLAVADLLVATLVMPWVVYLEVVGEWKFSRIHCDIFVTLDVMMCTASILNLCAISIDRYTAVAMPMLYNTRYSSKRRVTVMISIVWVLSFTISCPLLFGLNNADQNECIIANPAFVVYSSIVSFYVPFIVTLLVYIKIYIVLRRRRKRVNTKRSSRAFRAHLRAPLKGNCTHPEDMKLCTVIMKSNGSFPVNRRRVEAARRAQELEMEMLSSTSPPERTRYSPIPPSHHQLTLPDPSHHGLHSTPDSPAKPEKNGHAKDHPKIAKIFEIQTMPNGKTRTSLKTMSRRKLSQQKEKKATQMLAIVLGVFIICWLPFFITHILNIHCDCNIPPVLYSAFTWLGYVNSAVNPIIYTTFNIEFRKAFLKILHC

CC(NC(C)(C)C)C(=O)c1cccc(Cl)c1 (stereo not shown) [bupropion]
weight loss ([1]; trial of bupropion alone, patient on paroxetine and risperidone): did not cause significant weight loss
food intake after intra-peritoneal injection (mice; mice): pronounced effects on food intake
food intake (mice): inhibit food intake
weight lost ([2]; after 6 months, bupropion 150 mg/day added to olanzapine and valproate): 23.6 lbs
adverse effect reported ([2]; bupropion dose raised to 300 mg/day): feeling hyperactive
adverse effect limiting higher dose ([2]; higher dose (300-400 mg/day) of bupropion): precipitation of hypomanic symptoms
weight regained ([2]; over the next 10 months while continuing bupropion): 10.6 lbs
effect on weight gain resulting from olanzapine and valproate [2]: helped in decreasing weight gain
electrophysiological activity of POMC neurons (POMC neurons): increase the electrophysiological activity of POMC neurons
weight gain associated with mirtazapine [3]: decreases the weight gain associated with mirtazapine

NS(=O)(=O)Cc1noc2ccccc12 [zonisamide]
weight lost ([1]; in 3 weeks, zonisamide 100 mg increased to 200 mg): 12 pounds
weight relative to baseline ([1]; in 5 months, zonisamide increased to 300 mg and then 600 mg): their weight returned to baseline
weight reducing effects in humans ([4]; Gadde et al, 2003, 2001): well demonstrated in humans
tolerability / side effects ([4]; compared with placebo treatment, Gadde et al, JAMA 2003): well tolerated; also recorded: fatigue being the only side effect that occurred more frequently than with placebo treatment
weight loss ([4]; patients presenting with primary obesity, Gadde et al, JAMA 2003): significant weight loss
food intake after intra-peritoneal injection (mice; mice): pronounced effects on food intake
food intake over 24 hrs after intra-peritoneal injection (mice; mice): pronounced effects on food intake
food intake (mice): inhibit food intake
weight lost ([2]; over the next 4 months, zonisamide 100 then 200 mg/day added to bupropion, olanzapine, valproate): 15 lbs
effect on weight gain resulting from olanzapine and valproate [2]: helped in further offsetting weight gain
adverse effects ([2]; zonisamide 100 then 200 mg/day added to bupropion, olanzapine, valproate): no adverse effects
weight gain associated with olanzapine [5]: decrease the weight gain associated with olanzapine
craving for food [6]: significantly reduced their craving for food
weight gain [6]: prevented weight gain
electrophysiological activity of POMC neurons (POMC neurons): increase the electrophysiological activity of POMC neurons
serotonin and dopamine synthesis rates [7]: increases serotonin and dopamine synthesis rates
stimulation of dopamine D2 receptors (dopamine D2 receptors): stimulates dopamine D2 receptors
weight gain associated with mirtazapine [3]: decreases the weight gain associated with mirtazapine
